Where a SMILES comes first, the peptide text is derived from it.
Key:
[1] = pH 7.4
Procedure: Dry peptides were dissolved into 10 mM PBS buffer at pH 7.4 at different initial concentrations, and were incubated for 7 days at 25° C. without stirring. Each sample was then centrifuged using a Beckman Coulter Microfuge 22R Centrifuge at 24° C. for 20 min. The relative centrifugal force used was 1.75×10^4 g. Solubility of each sample was approximated by measuring the absorbance of the corresponding supernatant at 280 nm measured using a Beckman Coulter DU 730 UV/Vis Spectrophotometer.
Each peptide tested was incubated in 10 mM PBS buffer at pH 7.4 for 7 days at three different concentrations (100 μM, 500 μM and 1 mM) and the solution was then centrifuged. The apparent solubility was represented by the absorbance of the supernatant of each sample measured at 280 nm. The extinction coefficients of all polypeptides are very similar at 280 nm since they all contain the same aromatic residues and each contains a disulfide bond. […] A peptide which is soluble at 1 mM and above will show a linear dependence of absorbance on initial concentration. A peptide which is less soluble will deviate from linearity. The peptides were centrifuged after 7 days and their apparent solubility measured by measuring the absorbance at 280 nm of the supernatant of each solution. The apparent concentration refers to the concentration which would be obtained if all of the peptide dissolved. The absorbance of the supernatant is directly proportion to the amount of peptide in solution.

[2] = Thioflavin-T fluorescence assay of amyloid formation kinetics; type: physicochemical; conditions: 16 μM peptide, 10 mM PBS pH 7.4, 25° C., no stirring; 1 week and 6 week incubations
Procedure: Sample Preparation. Each peptide was dissolved into 100% hexafluoroisoproponal (HFIP) to make a 0.5 mM stock solution. Stock solutions were filtered using […] Acrodisc syringe filter with a GHP membrane and the required amount of peptide was lyophilized overnight to remove HFIP. Dry peptide was dissolved into the appropriate buffer for the fluorescence assays. Fluorescence Assays. Thioflavin-T binding assays, conducted without HFIP or stirring at 25° C., were utilized to monitor amyloid formation kinetics. Fluorescence measurements were performed using a Spectramax Gemini EM plate reader. Corning 96-well non-binding surface black plates with lids were used and were sealed with polyethylene sealing tape. Samples were prepared by dissolving dry peptide into 10 mM PBS buffer (pH 7.4) and 32 μM thioflavin-T solution immediately before the measurement. Thioflavin-T fluorescence was measured with 450 nm excitation and emission at 485 nm was monitored. The final concentrations were 16 μM peptides. After creating the mutant-hIAPP polypeptides of the present disclosure, applicants tested the propensity of the different analogs to form amyloid at pH 7.4 using thioflavin-T fluorescence assays (FIGS. 2A-D) and TEM (FIGS. 3A-E). […] Amyloid formation follows a sigmoidal time course consisting of a lag phase in which few, if any, fibrils are formed, followed by a growth phase and a saturation phase in which amyloid fibrils are in equilibrium with soluble peptide.

[3] = biological target: T1, human amylin receptor (hAMY1(a)) (Homo sapiens, UniProt O60894+P30988); assay: cAMP production (LANCE cAMP assay) in transfected Cos-7 cells; type: cell-based; conditions: Cos-7 cells expressing hAMY1(a); for EC50: cAMP production, mean ± spread, read-out: Human Amylin1(a) receptor binding data pEC50 (converted)
T1 construct: expressed in transfected cells; host or cells: Cos-7 cells, transient transfection with PEI, pcDNA3.1 vectors
T1 sequence (O60894 27-148 partner, one chain of several): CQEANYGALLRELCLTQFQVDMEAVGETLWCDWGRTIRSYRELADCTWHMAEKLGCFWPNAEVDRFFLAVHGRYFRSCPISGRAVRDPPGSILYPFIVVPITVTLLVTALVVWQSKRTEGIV
Procedure: (§1) Cell Culture and Transfection. Cos-7 cells were cultured and transfected for receptor activity assays as previously described in Bailey, R. J., and Hay, D. L. Peptides (2006) 27, pp. 1367-1375, the entire contents of which is incorporated herein by reference. Specifically, cells were cultured in Dulbucco's modified eagle medium (DMEM) with 8% heat-inactivated fetal bovine serum (FBS) and kept in a 37° C. humidified 95% air/5% CO2 incubator. Cells were plated at a density of 18,000-20,000 cells/well (depending on cell passage) in 96-well culture plate and returned to the incubator for approximately 18-24 hours. Transient transfections were carried out using polyethyleneimine (PEI) as described previously and maintained at 37° C. in a humidified 95% air/5% CO2 incubator for 36-48 hours. All DNA constructs used in this these were in pcDNA3.1 vectors.
(§2) cAMP Assay: Measurement of intracellular cAMP was achieved using a time-resolved fluorescent resonance energy transfer assay (LANCE cAMP assay, PerkinElmer), similar to the previously described Alphascreen assay as described in Gingell, J. J., et al. Peptides (2010) 31, pp. 1400-1404, with the following changes. Following stimulation with peptide agonist, cAMP assay media from the wells was thoroughly aspirated and 50 μl of ice-cold absolute ethanol added to each well. Plates were then placed in a −30° C. freezer for 10 minutes or overnight prior to assay, then removed and allowed to air dry in a fume hood for 1-2 hours. After ethanol evaporated from the plates, 50 μl of LANCE detection buffer (lysis buffer, 0.35% Triton X-100, 50 mM HEPES and 10 mM calcium chloride in ddH2O, pH 7.4) was added per well and left on a plate shaker for 10-15 minutes at room temperature. Meanwhile, a cAMP standard curve was generated using LANCE detection buffer and a serially diluted cAMP standard (50 μM) ranging from 1 μM to 10 pM. The serially diluted cAMP standards (5 μl) and cell lysates (5 μl) were transferred into 384-well opti-plates and sealed with a Sealplate®-A-384-well microplate adhesive film and briefly centrifuged (10 seconds, 500 rpm, 23° C.). A 1:200 dilution of LANCE assay Alexa Fluor® 647 anti-cAMP antibody was prepared in detection buffer and 5 μl added to each well. Plates were sealed and briefly centrifuged again (10 seconds, 500 rpm, 23° C.) and left to incubate, sealed for 30 minutes at room temperature. During this incubation, detection mix was made up consisting of detection buffer, Europium-W8044 labelled streptavidin (1:4500) and biotin-cAMP (1:1500). After 30 minutes incubation, 10 μl of detection mix was added to each well, plates were centrifuged (30 seconds, 500 rpm, 23° C.), sealed and left to incubate for 1 hour at room temperature. Plates were read after an overnight incubation on an Envision plate reader. A standard curve was included in each experiment to ensure accurate quantification of cAMP.
(§3) Data Analysis for Receptor Assays: Data were derived from independent experiments for statistical analysis and all experiments were performed and replicated. Quantification of cAMP was obtained from a standard curve included in each experiment and plotted using the software GraphPad Prism 6.0 (GraphPad Software Inc, San Diego, Calif., USA) with a non-linear regression 3-parameter logistic equation with a Hill Slope of 1 to determine the pEC50. The pEC50 values from the fits were combined from different experimental days and statistically tested for difference from the WT peptide using the Student's t-test with statistical significance defined as * p<0.05, ** p<0.01, *** p<0.001. Due to variability in amount of cAMP produced between experimental days, data were normalized to the control peptide for each experiment to obtain Emax values. For each analogue, data were normalized to the maximum (Emax) and minimum (Emin) responses of h-amylin. […]

[4] = biological target: T2, human calcitonin receptor (hCT(a)) (Homo sapiens, UniProt P30988); assay: as above; type: cell-based; conditions: Cos-7 cells expressing hCT(a); for EC50: cAMP production, mean ± spread, read-out: Human calcitonin receptor binding data pEC50 (converted)
T2 construct: expressed in transfected cells; host or cells: Cos-7 cells, transient transfection with PEI, pcDNA3.1 vectors
T2 sequence (P30988 25-474): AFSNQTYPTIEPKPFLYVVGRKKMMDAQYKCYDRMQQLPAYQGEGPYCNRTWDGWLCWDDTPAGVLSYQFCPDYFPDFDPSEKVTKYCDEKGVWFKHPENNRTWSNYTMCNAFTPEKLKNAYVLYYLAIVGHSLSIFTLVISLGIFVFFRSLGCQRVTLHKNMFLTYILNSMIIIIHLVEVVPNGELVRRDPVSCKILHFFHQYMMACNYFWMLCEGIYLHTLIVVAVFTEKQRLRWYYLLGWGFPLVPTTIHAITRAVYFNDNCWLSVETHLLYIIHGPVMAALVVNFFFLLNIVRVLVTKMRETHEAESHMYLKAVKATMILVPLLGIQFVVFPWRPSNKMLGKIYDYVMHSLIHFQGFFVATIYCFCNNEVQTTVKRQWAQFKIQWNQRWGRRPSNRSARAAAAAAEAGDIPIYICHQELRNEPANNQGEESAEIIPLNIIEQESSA
Procedure: as §1, §2, §3

[5] = pH 7
Procedure: 100 μL each solution was obtained immediately following dissolution with Novolin-N® and was centrifuged using a Beckman Coulter Microfuge (22R Centrifuge) at 24° C. for 20 minutes. The relative centrifugal force used was 1.75×104 g. Aliquots of each sample were immediately frozen and lyophilized. The remaining portion of each sample was not centrifuged and were incubated at 25° C. without stirring. Samples were collected again following the same procedures after 1 day, 7 days and 30 days. Dry samples were redissolved in 4:1 HPLC buffer mix (4A:1B, below) and immediately injected for liquid chromatography-mass spectroscopy (LC-MS) measurements. The HPLC buffers were (A) H2O (0.1% acetic acid and 0.02% TFA) and (B) CH3CN (0.1% acetic acid and 0.02% TFA). Solubility of each co-formulated sample was determined by measuring the absorbance from the liquid chromatogram traces at 215±8 nm and at 277±8 nm at each time point tested. points (0 hours, 24 hours, 7 days and 30 days post-formulation).

[6] = Transmission electron microscopy (TEM) of amyloid aggregates; type: physicochemical; conditions: after 7 days of incubation, end of kinetic experiment
Procedure: Transmission Electron Microscopy (TEM). TEM images were recorded using an FEI Bio TwinG^2 Transmission Electron Microscope at the central microscopy center at Stony Brook University. 15 μL aliquots of the samples used for fluorescence assays were removed at the end of each kinetic experiment, blotted on a carbon formvar-coated 300-mesh copper grid for 1 min and then negatively stained with saturated uranyl acetate for 1 min. Images were taken at a 68,000× magnification and 100 nm under focus. Mutant-hIAPP polypeptides of the present disclosure were further analyzed using TEM. […] In contrast, no amyloid fibrils were formed after a 1 week (FIGS. 3B-E, left) or 6 week (FIGS. 3B-E, right) culture with the any of the mutant-hIAPP analogs tested.

| SMILES | solubility at neutral pH (absorbance of supernatant at 280 nm) [1] | amyloid formation monitored by thioflavin-T fluorescence [2] | concentration-response of cAMP production compared with wild-type hIAPP [3] | EC50 [3] | concentration-response of cAMP production compared with wild-type hIAPP [4] | EC50 [4] | solubility co-formulated with Novolin-N (absorbance at 215 nm and 277 nm, LC-MS) [5] | amyloid aggregates in TEM images [6] |
| --- | --- | --- | --- | --- | --- | --- | --- | --- |
| CC(C)C[C@H](NC(=O)[C@H](CCCNC(=N)N)NC(=O)[C@H](CCC(N)=O)NC(=O)[C@@H](NC(=O)[C@H](C)NC(=O)[C@@H]1CSSC[C@H](NC(=O)[C@@H](N)CCCCN)C(=O)N[C@@H](CC(N)=O)C(=O)N[C@@H]([C@@H](C)O)C(=O)N[C@@H](C)C(=O)N[C@@H]([C@@H](C)O)C(=O)N1)[C@@H](C)O)C(=O)N[C@@H](C)C(=O)N[C@@H](CC(N)=O)C(=O)N[C@@H](Cc1ccccc1)C(=O)N[C@@H](CC(C)C)C(=O)N[C@H](C(=O)N[C@@H](Cc1c[nH]cn1)C(=O)N[C@@H](CO)C(=O)N[C@@H](CO)C(=O)N[C@@H](CC(N)=O)C(=O)N[C@@H](CCCCN)C(=O)N[C@@H](Cc1ccccc1)C(=O)N1CCC[C@H]1C(=O)N[C@@H](C)C(=O)N1CCC[C@H]1C(=O)N[C@@H](CC(C)C)C(=O)N[C@@H](CO)C(=O)N[C@@H](CO)C(=O)N[C@H](C(=O)N[C@@H](CCCCN)C(=O)N[C@H](C(=O)NCC(=O)N[C@@H](CO)C(=O)N[C@@H](CC(N)=O)C(=O)N[C@H](C(=O)N[C@@H](Cc1ccc(O)cc1)C(N)=O)[C@@H](C)O)C(C)C)[C@@H](C)O)C(C)C [SEQ ID NO: 10] (HELM PEPTIDE1{K.C.N.T.A.T.C.A.T.Q.R.L.A.N.F.L.V.H.S.S.N.K.F.P.A.P.L.S.S.T.K.V.G.S.N.T.Y.[am]}$PEPTIDE1,PEPTIDE1,2:R3-7:R3$$$V2.0) | more substantially soluble than wild-type hIAPP | none of the mutant hIAPP polypeptides forms amyloid | do not significantly alter amylin or calcitonin receptor activity | 3.39 nM | do not significantly alter amylin or calcitonin receptor activity | 5.01 nM | significantly higher absorbance when compared to both wild-type hIAPP and paramlintide | no aggregates are observed |
| CC[C@H](C)[C@H](NC(=O)[C@H](C)NC(=O)CNC(=O)[C@H](Cc1ccccc1)NC(=O)[C@H](CCCCN)NC(=O)[C@H](CC(N)=O)NC(=O)[C@H](CO)NC(=O)[C@H](CO)NC(=O)[C@H](Cc1c[nH]cn1)NC(=O)[C@@H](NC(=O)[C@H](CC(C)C)NC(=O)[C@H](Cc1ccccc1)NC(=O)[C@H](CC(N)=O)NC(=O)[C@H](C)NC(=O)[C@H](CC(C)C)NC(=O)[C@H](CCCNC(=N)N)NC(=O)[C@H](CCC(N)=O)NC(=O)[C@@H](NC(=O)[C@H](C)NC(=O)[C@@H]1CSSC[C@H](NC(=O)[C@@H](N)CCCCN)C(=O)N[C@@H](CC(N)=O)C(=O)N[C@@H]([C@@H](C)O)C(=O)N[C@@H](C)C(=O)N[C@@H]([C@@H](C)O)C(=O)N1)[C@@H](C)O)C(C)C)C(=O)N[C@@H](CC(C)C)C(=O)N1CCC[C@H]1C(=O)N[C@@H](CO)C(=O)N[C@H](C(=O)N[C@@H](CCCCN)C(=O)N[C@H](C(=O)NCC(=O)N[C@@H](CO)C(=O)N[C@@H](CC(N)=O)C(=O)N[C@H](C(=O)N[C@@H](Cc1ccc(O)cc1)C(N)=O)[C@@H](C)O)C(C)C)[C@@H](C)O [SEQ ID NO: 22] (HELM PEPTIDE1{K.C.N.T.A.T.C.A.T.Q.R.L.A.N.F.L.V.H.S.S.N.K.F.G.A.I.L.P.S.T.K.V.G.S.N.T.Y.[am]}$PEPTIDE1,PEPTIDE1,2:R3-7:R3$$$V2.0) | more substantially soluble than wild-type hIAPP | none of the mutant hIAPP polypeptides forms amyloid | do not significantly alter amylin or calcitonin receptor activity | 0.372 nM | do not significantly alter amylin or calcitonin receptor activity | 2.82 nM | significantly higher absorbance when compared to both wild-type hIAPP and paramlintide | no aggregates are observed |
